Measured values: US4988735A, “Ethylene diamine active cardiovascular therapy” (Simes, priority 1987, dated 1991)
Where two headings read alike, the source gives them in different places.

Tests used:
[1] = test system: vascular smooth muscle; settings: according to data in European Patent No. 41,757; cited from earlier work
[2] = test system: systemic hemodynamics; assay: Effects on systemic hemodynamics in dogs anaesthetized with pentobarbital (i.v. bolus); format: in vivo, dog; settings: for Heart rate: average ± SD, basal: Compound II 167±15, Compound A 178±11; for Heart index: basal: Compound II 1.547±0.147, Compound A 1.820±0.311; for Total peripheral resistances: basal: Compound II 78.497±8.587 (** p<0.01), Compound A 63.985±5.037; for Arterial pressure, minimum: basal: Compound II 101±5 (** p<0.01), Compound A 97±11; for Arterial pressure, medium: basal: Compound II 117±7 (** p<0.01), Compound A 112±12; for Maximum ejection rate: basal: Compound II 126.79±14.41 (* p<0.05), Compound A 138.59±21.74; for Arterial pressure, maximum: basal: Compound II 149±11 (* p<0.05), Compound A 143±14
Procedure: (§1) Catheters for detection of arterial pressure and flow electromagnetic transducers for measuring heart flow (heart index) and coronary flow were inserted in dogs anaesthetized with pentobarbital. The resistances were calculated from the pressure/flow ratio.

[3] = test system: serotonin-induced spasm of mesenteric artery; assay: Antagonism towards vascular spasms induced by serotonin, mesenteric artery strips; format: cell-based; settings: Krebs solution 37 °C, fiduciary limits 0.15-0.31
Procedure: (§2) (a) Antagonism towards vascular spasms induced by serotonin. Vascular strips of mesenteric artery and rabbit aorta were put into baths for isolated organ containing Krebs solutions at 37° C. and aerated with a mixture of oxygen and carbon dioxide 95:5.
(§3) The addition of serotonin to the bath causes a spasm which is detected by a strength transducer.
(§4) The antagonistic activity of compound II, evaluated as inhibiting concentration (IC50), gave the following results: […]

[4] = test system: serotonin; assay: Specific antagonism of serotonin effects on blood platelets and vessels (general statement)
Excerpt: Evaluation of specific antagonistic activity to serotonin (5TH) effects

[5] = test system: smooth muscle cells isolated from rat aorta; assay: Inhibition of arterial smooth muscle cell proliferation; format: cell-based
Procedure: A culture of smooth muscle cells was isolated by rat aorta incubated in the presence of the tested Compounds II, A, B, C and D for 24, 48 and 72 hours in a minimal essential medium added with bovine fetal serum: at the above intervals the number of cells in the culture was counted by a hemocytometer and compared with the number of cells in a control culture.

[6] = test system: coronary hemodynamics; assay: Effects on coronary hemodynamics in dogs anaesthetized with pentobarbital (i.v. bolus); format: in vivo, dog
Procedure: as §1

[7] = test system: serotonin-induced spasm of rabbit aorta; assay: Antagonism towards vascular spasms induced by serotonin, aorta strips; format: cell-based; settings: Oryctolagus cuniculus, Krebs solution 37 °C, fiduciary limits 0.05-0.56
Procedure: as §2, §3, §4

[8] = test system: arteriosclerotic plaques in aorta; assay: Prevention of the formation of arteriosclerotic plaques in rabbits on hypercholesterolemic diet; format: in vivo, rabbit
Procedure: Rabbits HY/CR were feeded with iperchloesterolemic diet (2% (cholesterol) for 60 days at the end of which, by planimetry after colouring aorta with Sindon Black, the extent of arteriosclerotic plaques was evaluated. […]

[9] = test system: serotonin-enhanced aggregation of dog blood platelets; assay: Enhancement in aggregation induced by serotonin, dog blood platelets; format: cell-based; settings: Canis lupus familiaris, Platelet, dihydrochloride, read-out: Threshold Inhibiting Concentration (TlC)
Procedure: (b) Enhancement in aggregation induced by serotonin.
The addition of 5HT to dog blood platelets causes the aggregation of non-aggregating concentrations of adenosine diphosphate, collagen and adrenaline.
The effects of compound II (dihydrochloride) expressed as single concentration, were evaluated by pre-incubating the blood platelets with different concentrations of the product and expressed as Threshold Inhibiting Concentration (TlC): […]

[10] = test system: serotonin-induced shape change of rat blood platelets; assay: Change of the shape of blood platelets induced by serotonin; format: cell-based; settings: Platelet, pre-treated, dihydrochloride
Procedure: (c) Change of the shape of blood platelets induced by serotonin. The addition of serontonin to rat blood platelets causes a change in the shape which is measured by an aggregometer as maximum decrease in light transmission.
Compund II (dihydrochloride) was tested by pre-treating the blood platelets with different concentrations of product and the activity was expressed as 50% inhibiting concentration (IC50).

## COc1cc(CN(C)CCN(C)CCC(c2ccccc2)c2ccccc2)cc(OC)c1OC [Compound A, N,N'-dimethyl-N-(3,4,5-trimethoxybenyl)-N'-(3,3-diphenyl-propyl)-ethylenediamine, reference compound]
[1]
  Anti-spasmodic activity (in words): most active compound
[2]; dog, 1 mg/kg (four times higher dose)
  Hemodynamic effects compared with Compound II (in words): Comparable effects to compound II
[2]; dog, Compound A at 1 mg/kg
  Cardiac output (in words): decrease in cardiac output
[2]; dog, i.v. bolus 0.25 mg/kg
  Effects on peripheral vascular resistances and on arterial pressure (in words): borderline effects
  Heart rate: 147±8 beats/min
  Heart index: 1.615±0.237 l/min/m^2
  Total peripheral resistances: 45.023±2.849 mmHg/l/min.
  Arterial pressure, minimum: 50±3 mmHg
  Arterial pressure, medium: 71±8 mmHg
  Maximum ejection rate: 135.58±17.55 ml/sec/m^2
  Arterial pressure, maximum: 98 mmHg
[2]; dog, i.v. bolus 0.25 mg/kg, Compound A, basal 10.09±1.29 (* p<0.05)
  Systolic index: 11.11±1.49 ml/beatsm^2

## COc1cc(CN(C)CCN(C)CCC(c2ccc(F)cc2)c2ccc(F)cc2)cc(OC)c1OC [Compound II, N,N'-dimethyl-N-(3,4,5-trimethoxybenzyl)-N'-[3,3-di-(4-fluorophenyl)-propyl]-ethylenediamine]
[3]
  IC50: 0.22 µM
[4]
  Antagonism of serotonin effects on blood platelets and vessels (in words): able to antagonize, in a specific way, the effect of serotonin on blood platelets as well as on vessels
[2]; anesthetized dogs
  Cardiac output (in words): increase in cardiac output
  Heart rate (in words): without a contemporaneous increase in heart rate
  Systemic vascular resistances (in words): decrease in systemic and coronary vascular resistances
[2]; dog, i.v. bolus 0.25 mg/kg, Compound II, basal 9.51±1.24 (* p<0.05)
  Systolic index: 13.39±1.00 ml/beats/m^2
[2]; dog, i.v. bolus 0.25 mg/kg
  Heart rate: 156±12 beats/min
  Heart index: 2.088±0.240 l/min/m^2
  Total peripheral resistances: 44.366±4.200 mmHg/l/min.
  Arterial pressure, minimum: 72±2 mmHg
  Arterial pressure, medium: 89±3 mmHg
  Maximum ejection rate: 174.77±10.27 ml/sec/m^2
  Arterial pressure, maximum: 130±6 mmHg
[5]
  Arterial smooth muscle cell proliferation (in words): inhibit arterial smooth muscle cell proliferation
[5]; 5 μM, 24, 48 and 72 hours
  Inhibition of cell proliferation (in words): inhibited meaningfully cell proliferation
[5]; rat aorta smooth muscle cells, 24, 48 and 72 hours (time of the IC50 not stated)
  IC50: 10 µM
[6]; anesthetized dogs
  Coronary vascular resistances (in words): decrease in systemic and coronary vascular resistances
[6]; dog, coronary hemodynamics, i.v. bolus 0.25 mg/kg, basal 103±6
  Arterial pressure, minimum: 87±3 mmHg
[6]; dog, coronary hemodynamics, i.v. bolus 0.25 mg/kg, basal 116±4
  Arterial pressure, medium: 102±5 mmHg
[6]; dog, coronary hemodynamics, i.v. bolus 0.25 mg/kg, basal 140±14
  Heart rate: 143±15 beats/min
[6]; dog, coronary hemodynamics, i.v. bolus 0.25 mg/kg, basal 145±3
  Arterial pressure, maximum: 142±5 mmHg
[6]; dog, i.v. bolus 0.25 mg/kg, basal 2.887±0.381, * p<0.05
  Average coronary resistances: 1.301±0.141 mmHg/ml/min
[6]; dog, i.v. bolus 0.25 mg/kg, basal 41.3±3.7, * p<0.05
  Left circumflex coronary artery flow: 101.6 ± 10.8 mL/min
[7]
  IC50: 0.16 µM
[8]; rabbit, 1 mg/kg s.c. twice a day, 60 days
  Reduction of the area of plaques in aorta: 40%
[8]; rabbit, 3 mg/kg s.c. twice a day, 60 days
  Reduction of the formation / area of plaques in aorta: 60%
[8]; rabbits on hypercholesterolemic diet
  Prevention of the formation of arteriosclerotic plaques (in words): able to prevent the formation of arteriosclerotic plaques
[9]; adenosine diphosphate + serotonin
  minimal effective concentration: 37 ± 20 µM
[9]; adrenaline + serotonin
  minimal effective concentration: 11 ± 5.4 µM
[9]; collagen + serotonin
  minimal effective concentration: 5.6 ± 4 µM
[10]
  IC50: 8.35 ± 1.35 µM
